ChEMBL document CHEMBL3244149, “New synthetic routes to tilorone dihydrochloride and some of its analogues” (J Med Chem, 1978)
Activity calls are given as the source filed them. The calls are words filed in the database; no cut-off is given here.

What was measured:
Mus musculus [1] = assay: Toxicity in CD-1 mouse at 300 mg/kg, ip; format: organism-based; parameters: dose 300 mg/kg, route intraperitoneal; conditions: in vivo
Mus musculus [2] = assay: Toxicity in CD-1 mouse at 100 mg/kg, ip; format: organism-based; parameters: dose 100 mg/kg, route intraperitoneal; conditions: in vivo
Mus musculus [3] = assay: Induction of interferon production in CD-1 mouse serum at 10 to 30 mg/kg, ip after 18 hrs; format: functional, organism-based
Mus musculus [4] = assay: Induction of interferon production in CD-1 mouse serum at 100 mg/kg, ip after 18 hrs; format: functional, organism-based; parameters: dose 100 mg/kg

| Structure (SMILES) | Activity (Mus musculus [1]) | Activity (Mus musculus [2]) | Activity (Mus musculus [3]) | Activity (Mus musculus [4]) |
| --- | --- | --- | --- | --- |
| CCN(CC)CCOc1cccc(C(=O)c2cccc(OCCN(CC)CC)c2)c1 | Toxic | Toxic | inactive |  |
| CCN(CC)CCOc1ccc2c(c1)C(=O)c1cc(OCCN(CC)CC)ccc1-2 |  |  |  | Active |
| CCN(CC)CCOc1ccc2c(c1)S(=O)(=O)c1cc(OCCN(CC)CC)ccc1-2 | Toxic | Non-toxic |  | inactive |
